Data taken from patent US20240158446A1, “CYCLIC COMPOUND HAVING SELECTIVE INHIBITORY ACTION ON KRAS OVER HRAS AND NRAS” (CHUGAI SEIYAKU KABUSHIKI KAISHA, priority 2021, published 2024).
*1 amine or outer side, *2 acyl side, *3 side chain or, on linkers, in order; H or OH if unused. Where a SMILES comes first, the peptide text is derived from it. Bridges are numbered along the chain shown (N, C = ends). [ ]: non-standard residue; d: D form. The star is where a group is joined. hPhe(3-Cl-4-CF3) = N[C@@H](CCc1ccc(C(F)(F)F)c(Cl)c1)C(=O)O; X46 = CCCCN([C@@H](Cc1ccc(C)cc1)C(=O)[*:2])[*:1]; NMeGly(cPent) = CN[C@H](C(=O)O)C1CCCC1; NMeD = CN[C@@H](CC(=O)O)C(=O)O; NMeL = CN[C@@H](CC(C)C)C(=O)O; Morpholide = C1CN(*)CCO1; NMeA = CN[C@@H](C)C(=O)O; Ac5c = NC1(C(=O)O)CCCC1; Aze = O=C(O)[C@@H]1CCN1; Sar = CNCC(=O)O

What was measured:
[1] = target: GDP-bound HRAS wild-type protein (Homo sapiens, UniProt P01112); test: Binding to HRAS by surface plasmon resonance (SPR), Single Cycle Kinetics; conditions: for HRAS/KRAS (ratio of KD value with respect to GDP-bound HRAS wild-type protein to KD value with respect to KRAS): SPR KD ratio HRAS/KRAS, class symbols
[2] = target: GDP-bound NRAS wild-type protein (Homo sapiens, UniProt P01111); test: Binding to NRAS by surface plasmon resonance (SPR), Single Cycle Kinetics; conditions: for NRAS/KRAS (ratio of KD value with respect to GDP-bound NRAS wild-type protein to KD value with respect to KRAS): SPR KD ratio NRAS/KRAS, class symbols
[3] = SPR, GDP-bound HRAS wild-type protein vs GDP-bound KRAS wild-type protein
[4] = SPR, GDP-bound NRAS wild-type protein vs GDP-bound KRAS wild-type protein

Sequence of GDP-bound HRAS wild-type protein (P01112 whole entry): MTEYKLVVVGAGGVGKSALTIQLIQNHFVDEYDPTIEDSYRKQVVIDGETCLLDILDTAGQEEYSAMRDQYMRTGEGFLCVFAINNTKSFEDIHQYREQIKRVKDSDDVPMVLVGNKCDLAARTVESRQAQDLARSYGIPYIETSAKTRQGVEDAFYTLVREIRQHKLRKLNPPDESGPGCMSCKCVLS
Sequence of GDP-bound NRAS wild-type protein (P01111 whole entry): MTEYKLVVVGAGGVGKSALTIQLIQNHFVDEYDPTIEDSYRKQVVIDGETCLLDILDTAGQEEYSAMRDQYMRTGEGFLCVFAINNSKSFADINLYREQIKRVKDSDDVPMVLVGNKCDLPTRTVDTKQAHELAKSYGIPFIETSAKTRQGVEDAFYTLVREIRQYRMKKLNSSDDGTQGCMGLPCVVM

SMILES | HRAS/KRAS (ratio of KD value for HRAS to KD value for KRAS) [1, 3] | NRAS/KRAS (ratio of KD value for NRAS to KD value for KRAS) [2, 4] | other results
CCO[C@@H]1C[C@H]2C(=O)NC3(CCC3)C(=O)N(C)[C@@H](C3CCCC3)C(=O)N(CCc3ccccc3)[C@H](C(=O)N3CCOCC3)CC(=O)N(C)[C@@H](CC(C)C)C(=O)N[C@@H]([C@@H](C)CC)C(=O)N(C)CC(=O)N(C)[C@H]3CCCCCN(C3=O)[C@@H](Cc3ccc(C(F)(F)F)cc3)C(=O)N(C)CC(=O)N[C@@H](CCc3cc(F)c(C(F)(F)F)c(F)c3)C(=O)N2C1 [PP0642] |  |  | HRAS/KRAS (ratio of KD value with respect to HRAS to KD value with respect to KRAS) [1, 3]: B (a compound having 3 or more and less than 10 is denoted as B); NRAS/KRAS (ratio of KD value with respect to NRAS to KD value with respect to KRAS) [2, 4]: B (a compound having 3 or more and less than 10 is denoted as B)
CC[C@H](C)[C@@H]1NC(=O)[C@H](CC(C)C)N(C)C(=O)C[C@@H](C(=O)N(C)C)N(C)C(=O)[C@H](C2CCCC2)N(C)C(=O)C2(CC(C)(C)C2)NC(=O)[C@@H]2C[C@@H](C)CN2C(=O)[C@H](CCc2cc(F)c(C(F)(F)F)c(F)c2)NC(=O)CN(C)C(=O)[C@H](Cc2ccc(C)cc2)N2CC/C=C\C[C@@H](C2=O)N(C)C(=O)CN(C)C1=O [PP2223] | A (a compound having 10 or more and less than 20 is denoted as A) | A (a compound having 10 or more and less than 20 is denoted as A) | 
CCCCN1C(=O)[C@@H]2CCN2C(=O)[C@H](C)N(C)C(=O)[C@H]([C@@H](C)CC)NC(=O)[C@H](CC(C)C)N(C)C(=O)C[C@@H](C(=O)N2CCOCC2)N(C)C(=O)[C@H](C2CCCC2)N(C)C(=O)C2(CCCC2)NC(=O)[C@@H]2CCCN2C(=O)[C@H](CCc2ccc(C(F)(F)F)c(Cl)c2)NC(=O)CN(C)C(=O)[C@@H]1Cc1ccc(C)cc1 [PP0055] ([NMeL]I[NMeA][Aze][X46][Sar][hPhe(3-Cl-4-CF3)]P[Ac5c][NMeGly(cPent)][NMeD]-Morpholide; lactam N-11) | C (A compound having a KD ratio of 0.1 or more and less than 3 is denoted as C) | C (A compound having a KD ratio of 0.1 or more and less than 3 is denoted as C) | 
CCOC[C@H]1C(=O)N[C@@H]([C@@H](C)CC)C(=O)N(C)CC(=O)N(C)[C@H]2C/C=C\CCN(C2=O)[C@@H](Cc2ccc(C(C)C)cc2)C(=O)N(C)CC(=O)N[C@@H](CCc2ccc(C(F)(F)F)c(OC)c2)C(=O)N2C[C@@H](C)C[C@H]2C(=O)NC2(CC(C)(C)C2)C(=O)N(C)[C@@H](C2CCCC2)C(=O)N(C)[C@H](C(=O)N(C)CC)CC(=O)N1C [PP2701] |  |  | HRAS/KRAS (ratio of KD value with respect to GDP-bound HRAS wild-type protein to KD value with respect to KRAS) [1]: A (a compound having 10 or more and less than 20 is denoted as A); NRAS/KRAS (ratio of KD value with respect to GDP-bound NRAS wild-type protein to KD value with respect to KRAS) [2]: A (a compound having 10 or more and less than 20 is denoted as A)
CC[C@H](C)[C@@H]1NC(=O)[C@H](CC(C)C)N(C)C(=O)C[C@@H](C(=O)N2CCOCC2)N(C)C(=O)[C@H](C2CCCC2)N(C)C(=O)C2(CCC2)NC(=O)[C@@H]2[C@H](OC)CCN2C(=O)[C@H](CCc2cc(F)c(C(F)(F)F)c(F)c2)NC(=O)CN(C)C(=O)[C@H](Cc2ccc(C(F)(F)F)cc2)N2CCCC[C@@H](C2=O)N(C)C(=O)CN(C)C1=O [PP1078] | B (a compound having 3 or more and less than 10 is denoted as B) | B (a compound having 3 or more and less than 10 is denoted as B) | 
CCO[C@@H]1C[C@H]2C(=O)NC3(CCC3)C(=O)N(C)[C@@H](C3CCCC3)C(=O)N(C)[C@H](C(=O)N3CCOCC3)CC(=O)N(C)[C@@H](CC(C)C)C(=O)N[C@@H]([C@@H](C)CC)C(=O)N(C)CC(=O)N(C)[C@H]3C[C@H]4C[C@H]4CN(C3=O)[C@@H](Cc3ccc(C(F)(F)F)cc3)C(=O)N(C)CC(=O)N[C@@H](CCc3cc(F)c(C(F)(F)F)c(F)c3)C(=O)N2C1 [PP0829] | C (A compound having a KD ratio of 0.1 or more and less than 3 is denoted as C) | B (a compound having 3 or more and less than 10 is denoted as B) | 
CCOC[C@H]1C(=O)N[C@@H]([C@@H](C)CC)C(=O)N(C)CC(=O)N(C)[C@H]2C/C=C\CCN(C2=O)[C@@H](Cc2ccc(C(C)(F)F)cc2)C(=O)N(C)CC(=O)N[C@@H](CCc2ccc(C(F)(F)F)c(OC)c2)C(=O)N2C[C@@H](C)C[C@H]2C(=O)NC2(CC(C)(C)C2)C(=O)N(C)[C@@H](C2CCCC2)C(=O)N(C)[C@H](C(=O)N(C)CC)CC(=O)N1C [PP2699] |  |  | HRAS/KRAS (ratio of KD value with respect to GDP-bound HRAS wild-type protein to KD value with respect to KRAS) [1]: B (a compound having 3 or more and less than 10 is denoted as B); NRAS/KRAS (ratio of KD value with respect to GDP-bound NRAS wild-type protein to KD value with respect to KRAS) [2]: A (a compound having 10 or more and less than 20 is denoted as A)
CCO[C@@H]1C[C@H]2C(=O)NC3(CCC3)C(=O)N(C)[C@@H](C3CCCC3)C(=O)N(C)[C@H](C(=O)N(C)C)CC(=O)N(C)[C@@H](CC)C(=O)N[C@@H]([C@@H](C)CC)C(=O)N(C)CC(=O)N(C)[C@H]3CC(C)=C(C)CN(C3=O)[C@@H](Cc3ccc(C(F)(F)F)cc3)C(=O)N(C)CC(=O)N[C@@H](CCc3cc(F)c(C(F)(F)F)c(F)c3)C(=O)N2C1 [PP1048] | C (A compound having a KD ratio of 0.1 or more and less than 3 is denoted as C) | C (A compound having a KD ratio of 0.1 or more and less than 3 is denoted as C) | 
CCO[C@@H]1C[C@H]2C(=O)NC3(CC(C)(C)C3)C(=O)N(C)[C@@H](C(CC)CC)C(=O)N(C)[C@H](C(=O)N(C)C)CC(=O)N(C)[C@@H](CC)C(=O)N[C@@H]([C@@H](C)CC)C(=O)N(C)CC(=O)N(C)[C@H]3C/C=C\CCN(C3=O)[C@@H](Cc3ccc(C(F)(F)F)cc3)C(=O)N(C)CC(=O)N[C@@H](CCc3ccc(Cl)c(Cl)c3)C(=O)N2C1 [PP2179] | A (a compound having 10 or more and less than 20 is denoted as A) | AA (a compound having 20 or more is denoted as AA) | 
CC[C@H](C)[C@@H]1NC(=O)[C@H](C2CCC2)N(C)C(=O)C[C@@H](C(=O)N(C)CC)N(C)C(=O)[C@H](C2CCCC2)N(C)C(=O)C2(CCC2)NC(=O)[C@@H]2C[C@H](C)CN2C(=O)[C@H](CCc2cc(F)c(C(F)(F)F)c(F)c2)NC(=O)CN(C)C(=O)[C@H](Cc2ccc(C(F)(F)F)cc2)N2CC/C=C\C[C@@H](C2=O)N(C)C(=O)CN(C)C1=O [PP2082] | A (a compound having 10 or more and less than 20 is denoted as A) | AA (a compound having 20 or more is denoted as AA) | 
CCO[C@@H]1C[C@H]2C(=O)NC3(CCC3)C(=O)N(C)[C@@H](C3CCCC3)C(=O)N(C)[C@H](C(=O)N(C)C)CC(=O)N(C)[C@@H](CC3CCCC3)C(=O)N[C@@H]([C@@H](C)CC)C(=O)N(C)CC(=O)N(C)[C@H]3C/C=C\CCN(C3=O)[C@@H](Cc3ccc(C)cc3)C(=O)N(C)CC(=O)N[C@@H](CCc3ccc(CC)c(F)c3)C(=O)N2C1 [PP2686] |  |  | HRAS/KRAS (ratio of KD value with respect to GDP-bound HRAS wild-type protein to KD value with respect to KRAS) [1]: A (a compound having 10 or more and less than 20 is denoted as A); NRAS/KRAS (ratio of KD value with respect to GDP-bound NRAS wild-type protein to KD value with respect to KRAS) [2]: A (a compound having 10 or more and less than 20 is denoted as A)
CCCCO[C@H]1CCN2C(=O)[C@H](CCc3cc(F)c(C(F)(F)F)c(F)c3)NC(=O)CN(C)C(=O)[C@H](Cc3ccc(C(F)(F)F)cc3)N3CCCCC[C@@H](C3=O)N(C)C(=O)CN(C)C(=O)[C@H]([C@@H](C)CC)NC(=O)[C@H](CC(C)C)N(C)C(=O)C[C@@H](C(=O)N3CCOCC3)N(C)C(=O)[C@H](C3CCCC3)N(C)C(=O)C3(CCC3)NC(=O)[C@H]12 [PP1009] | B (a compound having 3 or more and less than 10 is denoted as B) | B (a compound having 3 or more and less than 10 is denoted as B) | 
CC[C@H](C)[C@@H]1NC(=O)[C@H](CC(C)C)N(C)C(=O)C[C@@H](C)N(C)C(=O)[C@H](C2CCCC2)N(C)C(=O)C2(CCC2)NC(=O)[C@@H]2CCCN2C(=O)[C@H](CCc2cc(F)c(C(F)(F)F)c(F)c2)NC(=O)CN(C)C(=O)[C@H](Cc2ccc(C(F)(F)F)cc2)N2CC/C=C\C[C@@H](C2=O)N(C)C(=O)CN(C)C1=O [PP1099] | A (a compound having 10 or more and less than 20 is denoted as A) | B (a compound having 3 or more and less than 10 is denoted as B) | 
CCC[C@H]1C(=O)N[C@@H](C2CCC2)C(=O)N(C)CC(=O)N(C)[C@H]2C/C=C\CCN(C2=O)[C@@H](Cc2ccc(C)cc2)C(=O)N(C)CC(=O)N[C@@H](CCc2ccc(C(F)(F)F)c(F)c2)C(=O)N2C[C@H](OCC)C[C@H]2C(=O)NC2(CC(C)(C)C2)C(=O)N(C)[C@@H](C2CCC2)C(=O)N(C)[C@H](C(=O)N(C)C)CC(=O)N1C [PP2242] | A (a compound having 10 or more and less than 20 is denoted as A) | A (a compound having 10 or more and less than 20 is denoted as A) | 
CCO[C@@H]1C[C@H]2C(=O)NC3(CCC3)C(=O)N(C)[C@@H](C3CCCC3)C(=O)N(C)[C@H](C(=O)N(C)CC)CC(=O)N(C)[C@@H](CC(C)C)C(=O)N[C@@H]([C@@H](C)CC)C(=O)N(C)CC(=O)N(C)[C@H]3C/C=C\CCN(C3=O)[C@@H](Cc3ccc(C(F)(F)F)cc3)C(=O)N(C)CC(=O)N[C@@H](CCc3ccc(Cl)c(Cl)c3)C(=O)N2C1 [PP2845] |  |  | HRAS/KRAS (ratio of KD value with respect to GDP-bound HRAS wild-type protein to KD value with respect to KRAS) [1]: A (a compound having 10 or more and less than 20 is denoted as A); NRAS/KRAS (ratio of KD value with respect to GDP-bound NRAS wild-type protein to KD value with respect to KRAS) [2]: AA (a compound having 20 or more is denoted as AA)
